Reference: the NIST ThermoML archive (doi:10.1021/je060271a)
Numbers after ± are expanded uncertainties.

Conditions: 283.15 K, Liquid, Vibrating tube method

SMILES: CCCCC(=O)OCC(COC(=O)CCCC)(COC(=O)CCCC)COC(=O)CCCC [pentaerythritol tetrapentanoate]
- mass density (21592 kPa): 1039.3 ± 1.3 kg/m3
- mass density (21628 kPa): 1039.2 ± 1.3 kg/m3
- mass density (21658 kPa): 1039.2 ± 1.3 kg/m3
- mass density (21689 kPa): 1039.3 ± 1.3 kg/m3
- mass density (21727 kPa): 1039.4 ± 1.3 kg/m3
- mass density (21760 kPa): 1039.4 ± 1.3 kg/m3
- mass density (21791 kPa): 1039.4 ± 1.3 kg/m3
- mass density (21822 kPa): 1039.5 ± 1.3 kg/m3
- mass density (21860 kPa): 1039.5 ± 1.3 kg/m3
- mass density (21891 kPa): 1039.5 ± 1.3 kg/m3
- mass density (21922 kPa): 1039.5 ± 1.3 kg/m3
- mass density (21954 kPa): 1039.5 ± 1.3 kg/m3
- mass density (21992 kPa): 1039.5 ± 1.3 kg/m3
- mass density (22024 kPa): 1039.5 ± 1.3 kg/m3
- mass density (22061 kPa): 1039.6 ± 1.3 kg/m3
- mass density (22093 kPa): 1039.7 ± 1.3 kg/m3
- mass density (22125 kPa): 1039.5 ± 1.3 kg/m3
- mass density (22164 kPa): 1039.5 ± 1.3 kg/m3
- mass density (22192 kPa): 1039.6 ± 1.3 kg/m3
- mass density (22231 kPa): 1039.6 ± 1.3 kg/m3
- mass density (22263 kPa): 1039.6 ± 1.3 kg/m3
- mass density (22302 kPa): 1039.7 ± 1.3 kg/m3
- mass density (22335 kPa): 1039.7 ± 1.3 kg/m3
- mass density (22367 kPa): 1039.8 ± 1.3 kg/m3
- mass density (22406 kPa): 1039.7 ± 1.3 kg/m3
- mass density (22439 kPa): 1039.8 ± 1.3 kg/m3
- mass density (22472 kPa): 1039.7 ± 1.3 kg/m3
- mass density (22512 kPa): 1039.8 ± 1.3 kg/m3
- mass density (22545 kPa): 1039.8 ± 1.3 kg/m3
- mass density (22579 kPa): 1039.8 ± 1.3 kg/m3
- mass density (22619 kPa): 1040 ± 1.3 kg/m3
- mass density (22654 kPa): 1039.9 ± 1.3 kg/m3
- mass density (22687 kPa): 1039.9 ± 1.3 kg/m3
- mass density (22721 kPa): 1039.9 ± 1.3 kg/m3
- mass density (22762 kPa): 1039.8 ± 1.3 kg/m3
- mass density (22796 kPa): 1040 ± 1.3 kg/m3
- mass density (22830 kPa): 1039.9 ± 1.3 kg/m3
- mass density (22871 kPa): 1040 ± 1.3 kg/m3
- mass density (22905 kPa): 1040 ± 1.3 kg/m3
- mass density (22947 kPa): 1039.9 ± 1.3 kg/m3
- mass density (22982 kPa): 1040.1 ± 1.3 kg/m3
- mass density (23016 kPa): 1039.9 ± 1.3 kg/m3
- mass density (23059 kPa): 1040 ± 1.3 kg/m3
- mass density (23094 kPa): 1040.1 ± 1.3 kg/m3
- mass density (23129 kPa): 1040.1 ± 1.3 kg/m3
- mass density (23164 kPa): 1040.2 ± 1.3 kg/m3
- mass density (23208 kPa): 1040.1 ± 1.3 kg/m3
- mass density (23243 kPa): 1040.3 ± 1.3 kg/m3
- mass density (23285 kPa): 1040.3 ± 1.3 kg/m3
- mass density (23321 kPa): 1040.3 ± 1.3 kg/m3
- mass density (23357 kPa): 1040.2 ± 1.3 kg/m3
- mass density (23394 kPa): 1040.2 ± 1.3 kg/m3
- mass density (23437 kPa): 1040.3 ± 1.3 kg/m3
- mass density (23473 kPa): 1040.2 ± 1.3 kg/m3
- mass density (23516 kPa): 1040.4 ± 1.3 kg/m3
- mass density (23553 kPa): 1040.3 ± 1.3 kg/m3
- mass density (23590 kPa): 1040.4 ± 1.3 kg/m3
- mass density (23635 kPa): 1040.3 ± 1.3 kg/m3
- mass density (23672 kPa): 1040.4 ± 1.3 kg/m3
- mass density (23709 kPa): 1040.5 ± 1.3 kg/m3
- mass density (23746 kPa): 1040.5 ± 1.3 kg/m3
- mass density (23790 kPa): 1040.5 ± 1.3 kg/m3
- mass density (23827 kPa): 1040.5 ± 1.3 kg/m3
- mass density (23872 kPa): 1040.5 ± 1.3 kg/m3
- mass density (23909 kPa): 1040.5 ± 1.3 kg/m3
- mass density (23947 kPa): 1040.5 ± 1.3 kg/m3
- mass density (24000 kPa): 1040.6 ± 1.3 kg/m3
- mass density (24048 kPa): 1040.5 ± 1.3 kg/m3
- mass density (24099 kPa): 1040.6 ± 1.3 kg/m3
- mass density (24162 kPa): 1040.7 ± 1.3 kg/m3
- mass density (24208 kPa): 1040.8 ± 1.3 kg/m3
- mass density (24238 kPa): 1040.7 ± 1.3 kg/m3
- mass density (24266 kPa): 1040.7 ± 1.3 kg/m3
- mass density (24299 kPa): 1040.8 ± 1.3 kg/m3
- mass density (24327 kPa): 1040.8 ± 1.3 kg/m3
- mass density (24360 kPa): 1040.9 ± 1.3 kg/m3
- mass density (24388 kPa): 1040.7 ± 1.3 kg/m3
- mass density (24416 kPa): 1040.9 ± 1.3 kg/m3
- mass density (24444 kPa): 1040.9 ± 1.3 kg/m3
- mass density (24478 kPa): 1040.9 ± 1.3 kg/m3
- mass density (24506 kPa): 1040.9 ± 1.3 kg/m3
- mass density (24535 kPa): 1041 ± 1.3 kg/m3
- mass density (24569 kPa): 1040.9 ± 1.3 kg/m3
- mass density (24598 kPa): 1041 ± 1.3 kg/m3
- mass density (24626 kPa): 1040.9 ± 1.3 kg/m3
- mass density (24660 kPa): 1040.9 ± 1.3 kg/m3
- mass density (24689 kPa): 1040.9 ± 1.3 kg/m3
- mass density (24718 kPa): 1041 ± 1.3 kg/m3
- mass density (24746 kPa): 1041 ± 1.3 kg/m3
- mass density (24781 kPa): 1041.2 ± 1.3 kg/m3
- mass density (24810 kPa): 1041 ± 1.3 kg/m3
- mass density (24845 kPa): 1041.1 ± 1.3 kg/m3
- mass density (24874 kPa): 1041.2 ± 1.3 kg/m3
- mass density (24903 kPa): 1041.1 ± 1.3 kg/m3
- mass density (24934 kPa): 1041.1 ± 1.3 kg/m3
- mass density (24964 kPa): 1041.1 ± 1.3 kg/m3
- mass density (24999 kPa): 1041 ± 1.3 kg/m3
- mass density (25028 kPa): 1041.2 ± 1.3 kg/m3
- mass density (25058 kPa): 1041.2 ± 1.3 kg/m3
- mass density (25088 kPa): 1041.2 ± 1.3 kg/m3
- mass density (25124 kPa): 1041.1 ± 1.3 kg/m3
- mass density (25154 kPa): 1041.2 ± 1.3 kg/m3
- mass density (25183 kPa): 1041.2 ± 1.3 kg/m3
- mass density (25219 kPa): 1041.3 ± 1.3 kg/m3
- mass density (25249 kPa): 1041.3 ± 1.3 kg/m3
- mass density (25279 kPa): 1041.3 ± 1.3 kg/m3
- mass density (25347 kPa): 1041.3 ± 1.3 kg/m3
- mass density (25380 kPa): 1041.4 ± 1.3 kg/m3
- mass density (25410 kPa): 1041.3 ± 1.3 kg/m3
- mass density (25441 kPa): 1041.5 ± 1.3 kg/m3
- mass density (25477 kPa): 1041.3 ± 1.3 kg/m3
- mass density (25508 kPa): 1041.3 ± 1.3 kg/m3
- mass density (25544 kPa): 1041.4 ± 1.3 kg/m3
- mass density (25575 kPa): 1041.5 ± 1.3 kg/m3
- mass density (25606 kPa): 1041.5 ± 1.3 kg/m3
- mass density (25642 kPa): 1041.6 ± 1.3 kg/m3
- mass density (25673 kPa): 1041.4 ± 1.3 kg/m3
- mass density (25705 kPa): 1041.4 ± 1.3 kg/m3
- mass density (25742 kPa): 1041.3 ± 1.3 kg/m3
- mass density (25775 kPa): 1041.5 ± 1.3 kg/m3
- mass density (25806 kPa): 1041.6 ± 1.3 kg/m3
- mass density (25837 kPa): 1041.5 ± 1.3 kg/m3
- mass density (25875 kPa): 1041.6 ± 1.3 kg/m3
- mass density (25907 kPa): 1041.6 ± 1.3 kg/m3
- mass density (25939 kPa): 1041.7 ± 1.3 kg/m3
- mass density (25977 kPa): 1041.6 ± 1.3 kg/m3
- mass density (26009 kPa): 1041.6 ± 1.3 kg/m3
- mass density (26041 kPa): 1041.6 ± 1.3 kg/m3
- mass density (26079 kPa): 1041.7 ± 1.3 kg/m3
- mass density (26111 kPa): 1041.7 ± 1.3 kg/m3
- mass density (26143 kPa): 1041.7 ± 1.3 kg/m3
- mass density (26176 kPa): 1041.8 ± 1.3 kg/m3
- mass density (26216 kPa): 1041.7 ± 1.3 kg/m3
- mass density (26249 kPa): 1041.8 ± 1.3 kg/m3
- mass density (26282 kPa): 1041.8 ± 1.3 kg/m3
- mass density (26315 kPa): 1041.8 ± 1.3 kg/m3
- mass density (26354 kPa): 1041.8 ± 1.3 kg/m3
- mass density (26388 kPa): 1041.9 ± 1.3 kg/m3
- mass density (26421 kPa): 1041.8 ± 1.3 kg/m3
- mass density (26461 kPa): 1041.9 ± 1.3 kg/m3
- mass density (26494 kPa): 1042 ± 1.3 kg/m3
- mass density (26528 kPa): 1041.8 ± 1.3 kg/m3
- mass density (26567 kPa): 1042 ± 1.3 kg/m3
- mass density (26601 kPa): 1041.9 ± 1.3 kg/m3
- mass density (26635 kPa): 1041.9 ± 1.3 kg/m3
- mass density (26669 kPa): 1042 ± 1.3 kg/m3
- mass density (26710 kPa): 1042 ± 1.3 kg/m3
- mass density (26744 kPa): 1042.1 ± 1.3 kg/m3
- mass density (26778 kPa): 1042.1 ± 1.3 kg/m3
- mass density (26818 kPa): 1042 ± 1.3 kg/m3
- mass density (26853 kPa): 1042.1 ± 1.3 kg/m3
- mass density (26893 kPa): 1042.1 ± 1.3 kg/m3
- mass density (26928 kPa): 1042.1 ± 1.3 kg/m3
- mass density (26963 kPa): 1042.2 ± 1.3 kg/m3
- mass density (26997 kPa): 1042.1 ± 1.3 kg/m3
- mass density (27039 kPa): 1042.2 ± 1.3 kg/m3
- mass density (27074 kPa): 1042.2 ± 1.3 kg/m3
- mass density (27110 kPa): 1042.3 ± 1.3 kg/m3
- mass density (27152 kPa): 1042.2 ± 1.3 kg/m3
- mass density (27187 kPa): 1042.3 ± 1.3 kg/m3
